#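 The concentration for 50% growth inhibition is given as GI50. TGI marks complete inhibition of growth.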
# Columns and labels:
# Experiment in all cases: NCI anticancer screen, dose series, 384-well format
# MDA-MB-435 melanoma = test system: MDA-MB-435 melanoma
# OVCAR-4 ovarian = test system: OVCAR-4 ovarian
# SF-295 CNS = test system: SF-295 CNS
# 786-0 renal = test system: 786-0 renal
# SW-620 colon = test system: SW-620 colon
# HCT-15 colon = test system: HCT-15 colon
# SF-268 CNS = test system: SF-268 CNS
# MDA-MB-468 breast = test system: MDA-MB-468 breast
# DU-145 prostate = test system: DU-145 prostate
# MALME-3M melanoma = test system: MALME-3M melanoma
# UACC-257 melanoma = test system: UACC-257 melanoma
# RPMI-8226 leukemia = test system: RPMI-8226 leukemia
# COLO 205 colon = test system: COLO 205 colon
# IGROV1 ovarian = test system: IGROV1 ovarian
# HOP-62 NSCLC = test system: HOP-62 NSCLC
# HL-60(TB) leukemia = test system: HL-60(TB) leukemia
# ACHN renal = test system: ACHN renal
# CCRF-CEM leukemia = test system: CCRF-CEM leukemia
# HCT-116 colon = test system: HCT-116 colon
# EKVX NSCLC = test system: EKVX NSCLC
# OVCAR-8 ovarian = test system: OVCAR-8 ovarian
# A498 renal = test system: A498 renal
# MCF7 breast = test system: MCF7 breast
# M14 melanoma = test system: M14 melanoma
# SK-MEL-5 melanoma = test system: SK-MEL-5 melanoma
# NCI/ADR-RES ovarian = test system: NCI/ADR-RES ovarian
# MDA-MB-231 breast = test system: MDA-MB-231 breast
# CAKI-1 renal = test system: CAKI-1 renal
# OVCAR-5 ovarian = test system: OVCAR-5 ovarian
# HT29 colon = test system: HT29 colon
smiles,measurement,setting,value
CC1CCC(n2c3cnccc3c3cnc(Nc4ccc5c(n4)CCN(C(=O)CO)C5)nc32)CC1 (configuration not stated),GI50,MDA-MB-435 melanoma,8.55 µM
same,TGI,MDA-MB-435 melanoma,> 100 µM
same,GI50,OVCAR-4 ovarian,15.1 µM
same,TGI,OVCAR-4 ovarian,> 40 µM
same,TGI,SF-295 CNS,> 73.9 µM
same,GI50,786-0 renal,12.4 µM
same,TGI,786-0 renal,66.9 µM
same,GI50,SW-620 colon,1.05 µM
same,TGI,SW-620 colon,14.2 µM
same,GI50,HCT-15 colon,0.656 µM
same,TGI,HCT-15 colon,> 100 µM
same,GI50,SF-268 CNS,4.47 µM
same,TGI,SF-268 CNS,15.2 µM
same,GI50,MDA-MB-468 breast,13.5 µM
same,TGI,MDA-MB-468 breast,57.8 µM
same,GI50,DU-145 prostate,7.86 µM
same,TGI,DU-145 prostate,42.2 µM
same,GI50,MALME-3M melanoma,19.8 µM
same,TGI,MALME-3M melanoma,> 100 µM
same,GI50,UACC-257 melanoma,> 100 µM
same,TGI,UACC-257 melanoma,> 100 µM
same,GI50,RPMI-8226 leukemia,0.253 µM
same,TGI,RPMI-8226 leukemia,1.71 µM
same,GI50,COLO 205 colon,0.846 µM
same,GI50,IGROV1 ovarian,8.39 µM
same,TGI,IGROV1 ovarian,> 100 µM
same,GI50,HOP-62 NSCLC,3.66 µM
same,TGI,HOP-62 NSCLC,> 100 µM
same,GI50,HL-60(TB) leukemia,0.286 µM
same,TGI,HL-60(TB) leukemia,1.75 µM
same,GI50,ACHN renal,2.59 µM
same,TGI,ACHN renal,> 21.9 µM
same,GI50,CCRF-CEM leukemia,0.638 µM
same,TGI,CCRF-CEM leukemia,2.31 µM
same,GI50,HCT-116 colon,1.69 µM
same,TGI,HCT-116 colon,16.2 µM
same,TGI,EKVX NSCLC,> 100 µM
same,GI50,OVCAR-8 ovarian,6.42 µM
same,TGI,OVCAR-8 ovarian,> 100 µM
same,GI50,A498 renal,1.78 µM
same,TGI,A498 renal,9.42 µM
same,GI50,MCF7 breast,1.04 µM
same,TGI,MCF7 breast,> 100 µM
same,GI50,M14 melanoma,8.48 µM
same,TGI,M14 melanoma,> 100 µM
same,GI50,SK-MEL-5 melanoma,2.36 µM
same,TGI,SK-MEL-5 melanoma,> 94.8 µM
same,GI50,NCI/ADR-RES ovarian,13.9 µM
same,TGI,NCI/ADR-RES ovarian,> 100 µM
same,GI50,MDA-MB-231 breast,2.91 µM
same,TGI,MDA-MB-231 breast,14.4 µM
same,GI50,CAKI-1 renal,1.42 µM
same,TGI,CAKI-1 renal,> 28 µM
same,GI50,OVCAR-5 ovarian,2.23 µM
same,TGI,OVCAR-5 ovarian,> 100 µM
same,GI50,HT29 colon,6.05 µM
same,TGI,HT29 colon,> 100 µM

# Reference: PubChem BioAssay (NCI)
